Test results taken from US20220168430A1, “THERAPEUTIC METHODS FOR TREATING HEPATITIS B” (priority 2019, published 2022).
Several values for one entry are separate records, joined by “and”; a condition that tells them apart may be missing. Identical values can stand only once.

How the values were obtained:
HBV rcDNA = assay: Dual agent combination in HepDE19 cells, rcDNA by Quantigene 2.0 bDNA assay (Examples 5-8); type: cell-based, HBV; HepDE19 (HepG2 human hepatocarcinoma derived); details: for ADDITIVE INHIBITION: Expt 3
Method: In vitro dual agent combination studies were conducted using the method of Prichard and Shipman 1990 (Prichard M N, Shipman C, Jr. 1990. Antiviral Res 14:181-205). The HepDE19 cell culture system is a HepG2 (human hepatocarcinoma) derived cell line that supports HBV DNA replication and cccDNA formation under control the control of a CMV Tet-off promoter system (Guo et al. 2007. J Virol 81:12472-84). HepDE19 (50,000 cells/well) were plated in 96 well collagen-coated tissue-culture treated microtiter plates in DMEM/F12 medium supplemented with 10% fetal bovine serum+1% penicillin-streptomycin with tetracycline (1 μg/mL) and incubated in a humidified incubator at 37° C. and 5% CO2 overnight. Next day, the cells were switched to fresh medium without tetracycline and incubated for 4 hrs at 37° C. and 5% CO2. The cells were switched to fresh medium and treated with inhibitor A and inhibitor B, at concentration range spanning their respective EC50 values. […] The two inhibitors were tested both singly as well as in combinations in a checkerboard fashion such that each concentration of inhibitor A was combined with each concentration of inhibitor B to determine their combination effects on inhibition of rcDNA production. There were four replicates of each concentration combination in each experiment. The plates were incubated for 7 days in a humidified incubator at 37° C. and 5% CO2. The level of rcDNA present in the wells was measured using a Quantigene 2.0 bDNA assay kit (Affymetrix, Santa Clara, Calif.) with HBV specific custom probe set (genotype D ayw) and according to the manufacturer's instructions and read using a luminescence plate reader and the relative luminescence units (RLU) data generated from each well was calculated as % inhibition of the untreated control wells and analyzed using the MacSynergy II program to determine whether the combinations were synergistic, additive or antagonistic using the interpretive guidelines established by Prichard and Shipman (Prichard M N, Shipman C, Jr. 1990. […] Each experiment was repeated at least three times and the averages and standard deviations of individual determinations was calculated to derive the conclusion. Concurrently, in each experiment, the effect of inhibitor combinations on cell viability was assessed using replicate plates in triplicates that were used to determine the ATP content as a measure of cell viability using the Cell-Titer Glo reagent (Promega, Madison, Wis.) as per the manufacturer's instructions.

HBV DNA [1] = assay: HBV DNA in culture supernatants of HBV-infected PHH by qPCR (Examples 15-17); type: cell-based, HBV genotype D; primary human hepatocytes
Method: The day PHH seeding date was defined as day 0.
The PHH were infected with 400 HBV GE/cell of D type HBV on day 1.
The test articles were further diluted with the culture medium to the final test concentrations.
All the test articles were further diluted 100 times with the culture medium. The final concentration of DMSO in the culture medium was […].
Four two-way combinations were performed on a 5×5 matrix, in triplicate plates. Transfection reagent was present in all wells.
DNA in the culture supernatants harvested on days 8 was isolated with QIAamp 96 DNA Blood Kit (Qiagen-51162). For each sample, 100 μl of each culture supernatant was used to extract DNA. The DNA was eluted with 180 μl of AE. HBV DNA in the culture supernatants was quantified by quatitative PCR using well-established and commonly used procedures. Percent inhibition of HBV DNA was calculated with the formula below:
% Inh. HBV DNA=[1−value of sample/AVG. value of Medium control]×100.
Results of double combination studies were analyzed using MacSynergy II software (Prichard and Shipman, 1992).

HBV DNA [2] = assay: as above; type: cell-based, HBV genotype D; primary human hepatocytes; details: Hepatitis B virus, determined in an earlier separate experiment
HBsAg = HBsAg in culture supernatants of HBV-infected PHH by ELISA (Examples 15-17); details: for AVERAGE % INHIBITION: HBsAg
Method: All the test articles were further diluted 100 times with the culture medium. The final concentration of DMSO in the culture medium was 2%.
HBsAg in the culture supernatants harvested on days 8 was measured using the HBsAg/ELISA kit (Autobio) according to the manual. The samples were diluted 4-fold with PBS to get the signal in the range of the standard curve. Percent inhibition of HBsAg was calculated with the following formula:
% Inh. HBsAg=[1−HBsAg quantity of sample/HBV quantity of DMSO control]×100

Compound: C=C1[C@H](CO)[C@@H](O)C[C@@H]1n1cnc2c(=O)[nH]c(N)nc21 [ETV, entecavir]
- SYNERGY PLOT (99%) Bonferroni Adj. 55% (HBV rcDNA): 0
- ADDITIVE INHIBITION (HBV rcDNA; ETV 0.0003 μM alone): 28.28
- ADDITIVE INHIBITION (HBV rcDNA; ETV 0.001 μM alone): 38.31
- ADDITIVE INHIBITION (HBV rcDNA; ETV 0.003 μM alone): 62.92
- ADDITIVE INHIBITION (HBV rcDNA; ETV 0.008 μM alone): 88.06
- inhibition at 0.0003 µM (HBV rcDNA; Hepatitis B virus, HepDE19, Expt 3, ETV 0.0003 μM alone): 28.3%
- inhibition at 0.001 µM (HBV rcDNA; Hepatitis B virus, HepDE19, Expt 3, ETV 0.001 μM alone, read-out: AVERAGE % INHIBITION): 38.3%
- inhibition at 0.003 µM (HBV rcDNA; Hepatitis B virus, HepDE19, Expt 3, ETV 0.003 μM alone, read-out: AVERAGE % INHIBITION): 62.9%
- inhibition at 0.008 µM (HBV rcDNA; Hepatitis B virus, HepDE19, Expt 3, ETV 0.008 μM alone): 88.1%
- EC50 (HBV rcDNA; Hepatitis B virus, HepDE19, combination studies with Cmpd 1, read-out: Avg. Inhibitor B EC50): 1 nM
- SYNERGY PLOT (99.9%) Bonferroni Adj. 98% (HBV DNA) (HBV DNA [1]; Compound 1 0.00 μg/mL, ETV nM by row: r41 0.07000, r42 0.02300, r43 0.00780, r44 0.00260, r45 0.00086, r46 0.00000): 0
- inhibition at 860 fM (HBV DNA [1]; Hepatitis B virus, HBV DNA, ETV 0.00086 nM alone): -5.71%
- inhibition at 2.6 pM (HBV DNA [1]; Hepatitis B virus, HBV DNA, ETV 0.00260 nM alone): 8.16%
- inhibition at 23 pM (HBV DNA [1]; Hepatitis B virus, HBV DNA, ETV 0.02300 nM alone): 62.3%
- inhibition at 70 pM (HBV DNA [1]; Hepatitis B virus, HBV DNA, ETV 0.07000 nM alone): 85.7%
- inhibition at 7.8 pM (HBV DNA [1]; Hepatitis B virus, HBV DNA, ETV […] alone): 24.2%
- EC50 (HBV DNA [2]): 0.015 nM
- AVERAGE % INHIBITION (HBsAg; ETV 0.00260 nM alone): 4.92% and −1.45%
- AVERAGE % INHIBITION (HBsAg; ETV 0.02300 nM alone): 0.19% and −6.78%
- EC50 (HBsAg; Hepatitis B virus): > 0.07 nM
